Like-named read-outs stand apart in the source and are kept apart here.
Experiments:
[1] = target: T1, 5-HT1A receptor (Rattus norvegicus, UniProt P19327); assay: 5-HT syndrome (serotoninergic syndrome) in the male rat; format: in vivo, male rat (Sprague-Dawley); set-up: carried out with the male rat (Sprague-Dawley); from tissue; host or cells: whole living rat (Sprague-Dawley); settings: po
T1 sequence (P19327 1-422): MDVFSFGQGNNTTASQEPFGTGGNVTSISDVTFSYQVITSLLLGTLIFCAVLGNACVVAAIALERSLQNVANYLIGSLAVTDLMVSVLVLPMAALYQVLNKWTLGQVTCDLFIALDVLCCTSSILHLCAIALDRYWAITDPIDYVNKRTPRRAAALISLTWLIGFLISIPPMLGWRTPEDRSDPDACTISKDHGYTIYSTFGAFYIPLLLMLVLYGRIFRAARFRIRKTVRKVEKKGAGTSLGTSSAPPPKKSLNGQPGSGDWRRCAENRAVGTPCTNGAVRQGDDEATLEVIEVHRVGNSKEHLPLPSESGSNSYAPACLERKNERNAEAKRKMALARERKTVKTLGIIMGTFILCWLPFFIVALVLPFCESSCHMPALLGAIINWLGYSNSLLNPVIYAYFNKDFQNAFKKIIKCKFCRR
Protocol: The central activity of the compounds of the invention was evaluated by their ability to provoke the 5-HT syndrome, which is characterized by:
an alternating bending and stretching of the forepaws (reciprocal fore-paw treading: FPT)
the retraction of the lower lip (lower lip retraction: LLR)
a position or the ventral surface of the animal is in contact with the ground and the hind paws extended (flat body posture: FBP).
The experiments on the evaluation of the 5-HT syndrome are carried out with the male rat (Sprague-Dawley) according to the technique described by F. C. Colpaert et al. (Drug. Dev. Res., 26, 21-48, 1992) and M. S. Kleven et al. (J.P.E.T., 282, 747-759, 1997).

[2] = Antidepressant activity: Forced swimming test; format: in vivo; settings: percentage of animals with significant decrease (p<0.05) in immobility time vs control; po
[3] = target: T1, 5-HT1A receptor; assay: Binding to the 5-HT1A receptor (displacement of [3H]8-OH-DPAT, rat cortex); set-up: Brains from male Sprague-Dawley 180-200 g rats; tissue Iffa Credo, France (animals); host or cells: rat brain cortex; species or system male Sprague-Dawley rat; settings: read-out: pKi 5-HT1A (converted)
Protocol: (§1) Binding to the 5-HT1A, D2 dopaminergic and α1-adrenergic receptors:
(§2) Brains from male Sprague-Dawley 180-200 g rats [Ico: OFA SD (I.O.P.S. Caw); Iffa Credo, France], maintained at -70° C., were used in all the studies.
(§3) The affinity of the products for the various receptors was determined by displacement of radioactive ligands under the conditions summarized in Table 1.
(§4) The reaction is halted by rapid filtration, under vacuum, through Whatman GF/B filters and the tubes are rinsed with 2×5 ml of Tris-HCl 50 mM, pH 7.4, buffer at 25° C. The radioactivity collected on the filter is analyzed by liquid scintillation after addition of 4 ml of liquid scintillant (Emulsifier Safe, Packard). All the experiments are carried out in triplicate.
(§5) The inhibition constants (Ki) of the products are estimated from the displacement experimentations by using the EBDA (equilibrium binding data analysis) Radlig Version 4 non linear regression program (Biosoft, Cambridge, UK; McPherson, 1985).
(§6) The pKi (-log Ki) values are given in the form of the mean±SEM of at least 3 experimentations (Table 2).
10 A Assie and Koek, Eur. J.

[4] = target: T2, D2 dopaminergic receptor (Rattus norvegicus, UniProt P61169); assay: Binding to the D2 dopaminergic receptor (displacement of [3H]YM-09151-2, rat striatum); set-up: species or system male Sprague-Dawley rat; settings: read-out: pKi D2 (converted)
T2 construct: Brains from male Sprague-Dawley 180-200 g rats; tissue Iffa Credo, France (animals); host or cells: rat brain striatum
Protocol: as §1, §2, §3, §4, §5, §6

[5] = target: α1-adrenergic receptor; assay: Binding to the α1-adrenergic receptor (displacement of [3H]prazosin, rat cortex); set-up: species or system male Sprague-Dawley rat; settings: mean of at least 3 experimentations
Protocol: as §1, §2, §3, §4, §6

[6] = FBP, read-out: ED50 FBP (flat body posture)
[7] = FPT, read-out: ED50 FPT (reciprocal fore-paw treading)
[8] = LLR, read-out: ED50 LLR (lower lip retraction)

T2 sequence (P61169 whole entry): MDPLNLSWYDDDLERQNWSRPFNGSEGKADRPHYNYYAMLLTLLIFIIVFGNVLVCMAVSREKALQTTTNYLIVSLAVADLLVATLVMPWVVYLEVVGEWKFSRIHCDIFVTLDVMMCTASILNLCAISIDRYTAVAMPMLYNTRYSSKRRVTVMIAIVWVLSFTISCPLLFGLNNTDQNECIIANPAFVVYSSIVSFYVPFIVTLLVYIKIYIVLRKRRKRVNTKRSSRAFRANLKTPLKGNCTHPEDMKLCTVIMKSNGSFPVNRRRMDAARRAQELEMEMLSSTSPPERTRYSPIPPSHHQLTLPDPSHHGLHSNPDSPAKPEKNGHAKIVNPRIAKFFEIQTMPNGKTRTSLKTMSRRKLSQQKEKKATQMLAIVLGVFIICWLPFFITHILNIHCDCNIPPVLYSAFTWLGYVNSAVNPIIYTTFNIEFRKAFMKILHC

| ED50 [1, 6] | ED50 [1, 7] | ED50 [1, 8] | Ki [3] | Ki [4] | pKi α1 [5] | SMILES | ED50 [2] |
| --- | --- | --- | --- | --- | --- | --- | --- |
| 0.31 mg/kg | 0.31 mg/kg | 0.08 mg/kg |  |  |  | Cn1ncc(O[C@H]2CC[C@H](N3CCN(c4nccc(C(F)(F)F)n4)CC3)CC2)nc1=O [Compound 14, Trans-2-Methyl-5-[4-[4-(4-Trifluoro-Methylpyrimidin-2-Yl)Piperazin-1-Yl]Cyclohexyloxy]-2H-[1,2,4]Triazin-3-One] |  |
| 1.25 mg/kg | 1.25 mg/kg | 0.31 mg/kg | 3.72 nM | > 10000 nM | < 5.0 | Cn1c(=O)cnn([C@H]2CC[C@H](N3CCN(c4ncccn4)CC3)CC2)c1=O [Compound 4, Trans-4-Methyl-2-[4-(4-Pyrimidin-2-Yl-Piperazin-1-Yl)Cyclohexyl]-2H-[1,2,4]Triazine-3,5-Dione] | 1.25 mg/kg |
|  |  |  | 0.398 nM | 603 nM | 7.74 | Cn1nc(N[C@H]2CC[C@H](N3CCN(c4cccc(Cl)c4)CC3)CC2)c(=O)n(C)c1=O [Compound 17, trans-6-{4-[4-(3-Chlorophenyl)piperazin-1-yl]cyclohexylamino}-2,4-dimethyl-2H-[1,2,4]triazine-3,5-dione] |  |
| 0.08 mg/kg | 0.08 mg/kg | 0.08 mg/kg | 0.288 nM | > 10000 nM | 6.21 | Cn1ncc(O[C@H]2CC[C@H](N3CCN(c4nccc(Cl)n4)CC3)CC2)nc1=O [Compound 12, Trans-2-Methyl-5-[4-[4-(4-Chloropyrimidin-2-Yl)Piperazin-1-Yl]Cyclohexyloxy]-2H-[1,2,4]Triazin-3-One] | 0.74 mg/kg |
| 0.31 mg/kg | 0.31 mg/kg | 0.08 mg/kg | 0.525 nM | > 10000 nM | 6.65 | COc1ccnc(N2CCN([C@H]3CC[C@H](Oc4cnn(C)c(=O)n4)CC3)CC2)n1 [Compound 13, Trans-2-Methyl-5-[4-[4-(4-Methoxypyrimidin-2-Yl)Piperazin-1-yl]Cyclohexyloxy]-2H-[1,2,4]triazin-3-One] |  |
| 0.31 mg/kg | > 2.5 mg/kg | 0.08 mg/kg | 0.166 nM |  |  | Cn1ncc(O[C@H]2CC[C@H](NCC3COc4ccccc4O3)CC2)nc1=O (relative stereo) [Compound 16, Trans-5-[4-[(2,3-Dihydrobenzo[1,4]Dioxin-2-Ylmethyl)Amino]Cyclohexyloxy]-2-Methyl-2H-[1,2,4]Triazin-3-One] |  |
| 0.02 mg/kg | 0.08 mg/kg | 0.02 mg/kg | 0.251 nM | > 10000 nM | 5.72 | Cc1cc(C)nc(N2CCN([C@H]3CC[C@H](Oc4cnn(C)c(=O)n4)CC3)CC2)n1 [Compound 11, Trans-2-Methyl-5-[4-[4-(4,6-Dimethyl-Pyrimidin-2-Yl)Piperazin-1-Yl]Cyclohexyloxy]-2H-[1,2,4]triazin-3-one] | 0.08 mg/kg |
| 0.08 mg/kg | 0.31 mg/kg | 0.08 mg/kg | 0.708 nM | > 10000 nM | < 5.0 | Cn1ncc(O[C@H]2CC[C@H](N3CCN(c4ncccn4)CC3)CC2)nc1=O [Compound 9, trans-2-Methyl-5-[4-(4-pyrimidin-2-yl-piperizin-1-yl)cyclohexyloxy]-2H-[1,2,4]triazin-3-one] | 0.31 mg/kg |
| 0.08 mg/kg | 0.08 mg/kg | < 0.04 mg/kg | 0.603 nM | > 10000 nM | 5.89 | Cc1cc(C)nc(N2CCN([C@H]3CC[C@H](n4ncc(=O)n(C)c4=O)CC3)CC2)n1 [Compound 5, trans-4-Methyl-2-[4-[4-(4,6-dimethylpyrimidin-2-yl)piperizin-1-yl]cyclohexyl]-2H-[1,2,4]triazine-3,5-dione] | 0.31 mg/kg |
| 1.25 mg/kg | 5 mg/kg | 1.25 mg/kg | 1.23 nM | 89.1 nM | 6.50 | O=C(NCCN1CCN(c2cccc3c2OC[C@H](CO)O3)CC1)c1ccc(F)cc1 [Flesinoxan, reference compound] | 1.25 mg/kg |
| 0.08 mg/kg | 0.08 mg/kg | 0.02 mg/kg | 0.251 nM | > 10000 nM | 5.95 | Cc1ccnc(N2CCN([C@H]3CC[C@H](Oc4cnn(C)c(=O)n4)CC3)CC2)n1 [Compound 10, trans-2-Methyl-5-[4-[4-(4-methylpyrimidin-2-yl)piperazin-1-yl]cyclohexyloxy]-2H-[1,2,4]triazin-3-one] | 0.08 mg/kg |
| 1.25 mg/kg | > 2.5 mg/kg | 0.31 mg/kg |  |  |  | Cn1ncc(O[C@H]2CC[C@H](N3CCN(c4ncc(F)cn4)CC3)CC2)nc1=O [Compound 15, Trans-2-Methyl-5-[4-[4-(5-Fluoropyrimidin-2-Yl)Piperazin-1-yl]Cyclohexyloxy]-2H-[1,2,4]Triazin-3-One] |  |
| 0.08 mg/kg | 0.08 mg/kg | 0.08 mg/kg | 0.813 nM | > 10000 nM | 6.10 | Cc1ccnc(N2CCN([C@H]3CC[C@H](n4ncc(=O)n(C)c4=O)CC3)CC2)n1 [Compound 6, Trans-4-Methyl-2-[4-[4-(4-Methylpyrimidin-2-Yl)Piperazin-1-Yl]Cyclohexyl]-2H-[1,2,4]triazine-3,5-dione] |  |
|  |  |  | 0.195 nM | > 10000 nM | 7.86 | Cn1nc(N(C)[C@H]2CC[C@H](N3CCN(c4cccc(Cl)c4)CC3)CC2)c(=O)n(C)c1=O [Compound 19, Trans-6-({4-[4-(3-Chlorophenyl)Piperazin-1-Yl]Cyclohexyl}Methylamino)-2,4-Dimethyl-2H-[1,2,4]Triazine-3,5-Dione] |  |

| SMILES | ED50 [1, 6] | ED50 [1, 7] | ED50 [1, 8] | Ki [3] | Ki [4] | pKi α1 [5] | ED50 [2] |
| --- | --- | --- | --- | --- | --- | --- | --- |
| O=C1CC2(CCCC2)CC(=O)N1CCCCN1CCN(c2ncccn2)CC1 [Buspirone, reference compound] |  | > 40 mg/kg | 2.5 mg/kg |  |  | 6.19 | > 160 mg/kg |
